Laboratory results as given in patent US11573241B2, “Total cellular iron as a marker of cancer stem cells and uses thereof” (Institut National de la Sante et de la Recherche Medicale …, priority 2016, dated 2023).

Assays:
HBL100 = assay: Sensibility to AM5; format: cell-based, human; details: HBL100, Non-tumoral
Method: (§1) Cell viability assay. Cell viability assay was carried out by plating 1000 cells/well in 96-well plates. Cells were treated as indicated for 72 h. CellTiter-Blue® Reagent (G8081, Promega) was added after 72 h treatment and cells were incubated for 1 h before recording fluorescence intensities (Excitation, 560/20 nm; Emission, 590/10 nm) using a Perkin Elmer Wallac 1420 Victor2 Microplate Reader.

MDA-MB-134 = assay: Sensibility to AM5; format: cell-based, human
Method: as §1

BT549 = assay: Sensibility to AM5; format: cell-based, human; details: BT549, CSTN
Method: as §1

HMLER CD24^high = assay: Sensibility to AM5; format: cell-based, human
Method: as §1

MDA-MD-157 = assay: Sensibility to AM5; format: cell-based, human; details: MDA-MD-157, CSTN
Method: as §1

BT474 = assay: Sensibility to AM5; format: cell-based, human
Method: as §1

MDA-MB-361 = assay: Sensibility to AM5; format: cell-based, human
Method: as §1

Zr75.1 = assay: Sensibility to AM5; format: cell-based, human; details: Zr75.1, H+
Method: as §1

MDA-MB-231 = assay: Sensibility to AM5; format: cell-based, human; details: MDA-MB-231, CSTN
Method: as §1

MCF-7 = assay: Sensibility to AM5; format: cell-based, human; details: MCF-7, H+
Method: as §1

T47D = assay: Sensibility to AM5; format: cell-based, human; details: H+
Method: as §1

SW620 = assay: Sensibility to AM5; format: cell-based; details: SW620, Colon
Method: as §1

SW480 = assay: Sensibility to AM5; format: cell-based; details: SW480, Colon
Method: as §1

primary breast cells = assay: Toxicity against primary breast cells; format: cell-based
MCF-7 tumors = assay: Perl's reaction, iron(III) in MCF-7 xenograft tumor tissue; format: in vivo, mice; details: 3 mg/kg body weight/day, intraperitoneal
Method: Xenograft tumor formation experiments. MCF-7 cell cultures were collected, enzymatically dissociated, washed with PBS, and re-suspended in a PBS/Matrigel mixture (1:1 v/v). The mixture (0.1 mL) was then implanted in the mammary fat pad of 5-week-old female AthymicNude-Fox1nu mice bilaterally (Harlan, France). Mice were maintained in individually-ventilated cages (Tecniplast, France) under constant temperature and humidity. All experiments were performed under laminar flow (Tecniplast France). Mice received estradiol supplementation (0.4 mg/kg) the same day and 7 days from cell injection, and were observed and palpated for tumor appearance. Mice were treated with AM5 (3 mg/kg body weight/day) by means of intraperitoneal injections every 5 opened days of the week. Tumor growth was measured weekly using calipers. Tumor volume was determined using the standard formula: L×W^2×0.52, where L and W are the longest and shortest diameters, respectively. All animal studies were approved by the Direction des services Vétérinaires, Prefecture de Police, Paris, France (authorization number A75-14-08) and the ethical committee (number 34) of Paris Descartes University. No randomization was used and experimenters were blinded to drug treatments and tissue analyses.
Perl's reaction. Tumors from mice were removed at time of sacrifice. Tumors were fixed with 4% PFA and embedded in paraffin. […]

RhoNox-1 reduction assay = details: in the presence of iron (II)
Method: RhoNox-1 reduction assay. Experiments were carried in 96-well plate dishes. Reagent stock solutions were freshly prepared using Milli-Q water. 50 μL of solutions of Sal (800 μM), DFO (800 μM) and FeSO4 (80 μM) were mixed prior to addition of 50 μL of RhoNox-1 (40 μM) and completed with the appropriate volume of water to reach a final volume of 200 μL per well. Measurements were performed 30 min after addition of RhoNox-1 to the mix and were recorded using the PARADIGM™ Microplate Detection Platform (ex. 492 nm; em. 580 nm).

## C#CCN[C@@H]1C=C[C@]2(O[C@H]([C@@H](CC)C(=O)[C@@H](C)[C@@H](O)[C@H](C)C3O[C@@H](C(CC)C(=O)O)CC[C@@H]3C)[C@@H](C)C[C@H]2C)O[C@@]12CC[C@@](C)([C@H]1CC[C@](O)(CC)[C@H](C)O1)O2 (stereo partly shown) [AM5, Sal-Propargylamine]
HBL100
  Sensibility to AM5: First
MDA-MB-134
  Sensibility to AM5: Second
BT549
  Sensibility to AM5: Resistant
HMLER CD24^high
  Sensibility to AM5: First
MDA-MD-157
  Sensibility to AM5: Second
BT474
  Sensibility to AM5: Second
MDA-MB-361
  Sensibility to AM5: Second
Zr75.1
  Sensibility to AM5: First
MDA-MB-231
  Sensibility to AM5: Second
MCF-7
  Sensibility to AM5: First
T47D
  Sensibility to AM5: Resistant
SW620
  Sensibility to AM5: Third
SW480
  Sensibility to AM5: Third
Primary breast cells
  toxicity against primary breast cells: little toxicity
MCF-7 tumors
  iron(III) in tumor tissue: accumulation of iron(III)

## CC[C@@H](C(=O)[C@@H](C)[C@@H](O)[C@H](C)[C@@H]1O[C@@H]([C@@H](CC)C(=O)O)CC[C@@H]1C)[C@H]1O[C@]2(C=C[C@@H](O)[C@]3(CC[C@@](C)([C@H]4CC[C@](O)(CC)[C@H](C)O4)O3)O2)[C@H](C)C[C@@H]1C [Sal, salinomycin, reference compound]
RhoNox-1 reduction assay
  effect on iron reactivity (fluorogenic reduction of RhoNox-1): without altering its reactivity
